Laboratory results: patent US6197797A, “Cyanoguanidines as cell proliferation inhibitors” (Leo Pharmaceutical Products Ltd. A/S (L.o slashed.vens …, priority 1997, dated 2001)

What was measured:
[1] = tested on: human breast cancer (MCF-7); experiment: Inhibition of tumour cell proliferation in vitro ([3H]thymidine incorporation), MCF-7; assay type: cell-based; details: MCF7, MCF-7, 24 hours, read-out: The median inhibition concentration (IC50, nM) of MCF-7
Protocol: (§1) The inhibition of tumour cell proliferation was studied using different types of human cancer cell lines. The cell lines under investigation were small cell lung carcinoma (NYH), non small cell lung carcinoma (NCI-H460), and breast cancer (MCF-7) using the following general procedure.
(§2) The cells were cultured in vitro for 24 hours in the presence of the compound under investigation. DNA synthesis was measured by incorporation of [3H]thymidine, and the median inhibitory concentrations (IC50) of the compounds were calculated.

[2] = tested on: Yoshida sarcoma tumour-bearing rats; experiment: Prolongation of survival time of tumour-bearing rats; assay type: in vivo, LEW/Mol inbred female rats
Protocol: The prolongation of survival time of tumour-bearing rats was studied in LEW/Mol inbred female rats inoculated with Yoshida sarcoma cells in a number of 2×10^7 cells. Tumour-bearing rats (6 animals per group) were dosed orally once daily from day 3 after the transfer of tumour cells and until death or for a maximum of 21 days or until the body weights had increased by 10% as a consequence of tumour proliferation. The mean survival day of treated versus non-treated rats is used to calculate ILS (Increased Life Span). ILS=((mean treated/mean control)-1)*100%.

[3] = tested on: human non small cell lung carcinoma (NCI-H460); experiment: Inhibition of tumour cell proliferation in vitro ([3H]thymidine incorporation), NCI-H460; assay type: cell-based; details: NCI-H460, 24 hours, read-out: The median inhibition concentration (IC50, nM) of NCI-H460
Protocol: as §1, §2

[4] = tested on: human small cell lung carcinoma (NYH); experiment: Inhibition of tumour cell proliferation in vitro ([3H]thymidine incorporation), NYH; assay type: cell-based; details: 24 hours, read-out: The median inhibition concentration (IC50, nM) of NYH
Protocol: as §1, §2

[5] = 20 mg/kg p.o. once daily from day 3, ILS=((mean treated/mean control)-1)*100%

| Compound | IC50 [1] [nM] | Increased life span (ILS) % [2, 5] [%] | IC50 [3] [nM] | IC50 [4] [nM] | Increased life span (ILS) % ([2]; 50 mg/kg p.o. once daily from day 3, ILS=((mean treated/mean control)-1)*100%) [%] |
| --- | --- | --- | --- | --- | --- |
| N#CNC(=Nc1ccncc1)NCCCCCc1ccccc1 [Example 1, N-Cyano-N'-(5-phenylpentyl)N"-4-pyridylguanidine] | 40 | 49 | – | – | – |
| N#CNC(=Nc1ccncc1)NCCCCCCCCCc1ccccc1 [Example 5, N-Cyano-N'-(9-phenylnonyl)-N"-4-pyridylguanidine] | 29 | – | 5.8 | 5.3 | – |
| N#CN=C(NCCCC/C=C\c1ccccc1)Nc1ccncc1 [Example 10, (Z)-N-Cyano-N'-(6-phenylhex-5-enyl)-N"-4-pyridylguanidine] | 54 | 35 | 135 | 7.3 | – |
| N#CN=C(NCC/C=C/C=C/c1ccccc1)Nc1ccncc1 [Example 12, (E,E)-N-Cyano-N'-(6-phenylhex-3,5-dienyl)-N"-4-pyridylguanidine] | 138 | – | 49 | 5.5 | – |
| N#CNC(=Nc1ccncc1)NCCCCC#Cc1ccccc1 [Example 14, N-Cyano-N'-(6-phenylhex-5-ynyl)-N"-4-pyridylguanidine] | 74 | – | 78 | 6.1 | – |
| CCCCCCCCCCCCNC(=Nc1ccncc1)NC#N [Example 18, N-Cyano-N'-dodecyl-N"-4-pyridylguanidine] | 19 | – | 61 | 5 | – |
| N#CNC(=Nc1ccncc1)NCCCCCOc1ccccc1 [prior art B, N-Cyano-N'-(5-phenoxypentyl)-N"-4-pyridylguanidine, reference compound] | – | – | – | – | 35 |
